target: T1, 5-lipoxygenase (Mus musculus, UniProt P48999); assay: In vitro 5-lipoxygenase inhibition, release of LTC4 from zymosan-stimulated peritoneal macrophages; format: cell-based; details: zymosan-stimulated mouse peritoneal macrophage cells, 10^-5 mole/l
T1 construct: A cell suspension containing peritoneal cells from male mice 8-10 weeks old was obtained in a known manner; endogenous in cells; host or cells: mouse peritoneal macrophages (primary, adherent)
T1 sequence (P48999 1-674): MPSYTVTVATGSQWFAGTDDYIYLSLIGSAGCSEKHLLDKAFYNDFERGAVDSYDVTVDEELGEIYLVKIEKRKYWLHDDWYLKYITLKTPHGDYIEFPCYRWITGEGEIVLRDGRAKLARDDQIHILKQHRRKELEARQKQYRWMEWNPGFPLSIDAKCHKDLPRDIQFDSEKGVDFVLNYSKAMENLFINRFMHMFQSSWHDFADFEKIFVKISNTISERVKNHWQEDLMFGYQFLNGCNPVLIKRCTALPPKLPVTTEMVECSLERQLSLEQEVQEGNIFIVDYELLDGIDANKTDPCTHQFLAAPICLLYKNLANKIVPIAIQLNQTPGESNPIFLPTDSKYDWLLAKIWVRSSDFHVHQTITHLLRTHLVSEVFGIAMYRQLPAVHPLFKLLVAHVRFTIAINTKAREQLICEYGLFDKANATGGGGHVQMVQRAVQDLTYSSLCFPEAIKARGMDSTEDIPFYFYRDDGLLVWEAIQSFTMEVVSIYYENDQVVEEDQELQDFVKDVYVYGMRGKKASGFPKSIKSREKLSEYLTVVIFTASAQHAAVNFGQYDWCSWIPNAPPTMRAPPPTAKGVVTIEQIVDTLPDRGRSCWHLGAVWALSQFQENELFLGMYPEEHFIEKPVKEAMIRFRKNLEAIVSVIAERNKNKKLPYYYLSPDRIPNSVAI
Source text: 5. In Vitro Determination of Cyclooxygenase Inhibition And 5-lipoxygenase Inhibition.
After a cell is activated, arachidonic acid contained in cell membranes is metabolized in two ways. Leucotrienes, inter alia leucotriene C4, are formed due to the action of the enzyme 5-lipoxygenase (=5-LO), and prostanoids are formed due to the action of the enzyme cyclooxygenase (=CO). In in vitro systems these metabolites are secreted from the cell.
To evaluate the cyclooxygenase-inhibiting and 5-lipoxygenase-inhibiting properties of the test substances, their inhibitory activity on the biosynthesis of the arachidonic acid derivatives leucotriene C4 (=LTC4) and 6-keto-prostaglandin F1α (=6-keto-PGF1α) was determined in vitro on mouse peritoneal macrophage cells. For this purpose the LTC4 and 6-keto-PGF1α contents of a mouse peritoneal macrophage cell culture medium were determined by zymosan stimulation as described by Scott et al. (J. Exp. Med. 152 (1980), 324-335) and by Fradin et al., (Prostaglandins, 33 (1987), 579-589).
A cell suspension containing peritoneal cells from male mice 8-10 weeks old was obtained in a known manner. A solution marketed under the designation RPMI 1640 (Manufactured by Gibco) was used as the cell culture medium, to which heparin (10 international units/ml) and antibiotics were added according to the procedure of Bonney et al. (Biochem. J. 176 (1978) 422-433). The cell suspension was adjusted to a cell concentration of 10^6 cells per ml and distributed uniformly on titer dishes containing 24 1-ml titer cells (wells). These were kept for two hours in a humidified incubator filled with air enriched with 7% CO2. Cells not adhering to the titer well walls were then removed by washing. The remaining macrophage cells adhering to the walls were incubated for about 12 hours in a suspension medium to which 0.1% of bovine serum albumin (BSA=Bovine Serum Albumin) was added. The suspension medium was then replaced by a Hanks salt solution (=Hanks Balanced Salt Solution=HBSS) with 10 mmoles of HEPES (=hydroxyethylpiperazinoethanesulfonic acid) to which a 0.1% strength solution of the test substances in aqueous, 1% strength dimethylformamide or only the solvent had been added. After 15 minutes the arachidonic acid metabolism was stimulated by adding […] of zymosan (=glycoprotein mixture isolated from cell walls of beer yeast, Saccharomyces cerevisiae, Manufactured by Sigma Chemical Co., Munich) per titre cell. After 2 hours samples of the respective supernatant liquid in each cell were examined for their 6-keto-PGF1α and LTC4 contents by an enzyme immunoassay (=EIA). This EIA is carried out following the method of Pradelles et al. (Analytical Chem. 57 (1985), 1170-1173). The determination of LTC4 and the determination of 6-keto-PGF1α were each carried out on suitable dilutions of the samples (1:50 to 1:250 for the LTC4 determination and 1:250 to 1:1,250 for the 6-keto-PGF1α determination) in comparison with a comparative scale. To determine the inhibiting effect of a 10^-5 molar concentration of the compounds, the amounts of reference eicosanoid were determined, and the inhibiting effect was calculated therefrom in % inhibition compared to the measurements of the zymosan controls.

| Structure (SMILES) | % inhibition upon release of LTC4 [%] |
| --- | --- |
| Cc1ccnc(N2CCN(CCCCC3Sc4ccccc4NC3=O)CC2)c1 (centres unmarked) [Example 1, 2-{4-[4-(4-methylpyridin-2-yl)-piperazin-1-yl]butyl}-2H-1,4-benzothiazine-3(4H)-one] | 48 |
| O=C1Nc2ccccc2SC1CCCN1CCN(c2ccc(Cl)cn2)CC1 (centres unmarked) [Example 15] | 9 |
| Cc1ccnc(N2CCN(CCCC3Sc4ccccc4NC3=S)CC2)c1 (centres unmarked) [Example 11] | 42 |
| Cc1ccnc(N2CCN(CCCCC3Oc4ccccc4NC3=O)CC2)c1 (centres unmarked) [Example 7] | 46 |
| Cc1ccnc(N2CCN(CCCC3Oc4ccccc4NC3=O)CC2)c1 (centres unmarked) [Example 9] | 65 |
